Calls of active or inactive are those of the source.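 The calls were made as follows: active = mean IC50 for reducing PEG3 promoter reporter signal at or below a set limit, with IC50 above the limit in both counter screens; inactive = the rest, including counter screen hits.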
Assays:
[1] = system: PEG-3; assay: Peg3 promoter luciferase inhibitors, potency, dose response, cell-based, HeLa, CREF/GAPDH counter-screen panel (AID 624167); conditions: HeLa PEG-Prom luciferase reporter, overnight, CREF/GAPDH counter-screens
[2] = molecular target: PEG-3 (UniProt Q6IN02); assay: as above; conditions: HeLa PEG-Prom luciferase reporter, overnight, CREF/GAPDH counter-screens, mean of runs
Chain of PEG-3 (UniProt Q6IN02) (Q6IN02 whole entry, looked up): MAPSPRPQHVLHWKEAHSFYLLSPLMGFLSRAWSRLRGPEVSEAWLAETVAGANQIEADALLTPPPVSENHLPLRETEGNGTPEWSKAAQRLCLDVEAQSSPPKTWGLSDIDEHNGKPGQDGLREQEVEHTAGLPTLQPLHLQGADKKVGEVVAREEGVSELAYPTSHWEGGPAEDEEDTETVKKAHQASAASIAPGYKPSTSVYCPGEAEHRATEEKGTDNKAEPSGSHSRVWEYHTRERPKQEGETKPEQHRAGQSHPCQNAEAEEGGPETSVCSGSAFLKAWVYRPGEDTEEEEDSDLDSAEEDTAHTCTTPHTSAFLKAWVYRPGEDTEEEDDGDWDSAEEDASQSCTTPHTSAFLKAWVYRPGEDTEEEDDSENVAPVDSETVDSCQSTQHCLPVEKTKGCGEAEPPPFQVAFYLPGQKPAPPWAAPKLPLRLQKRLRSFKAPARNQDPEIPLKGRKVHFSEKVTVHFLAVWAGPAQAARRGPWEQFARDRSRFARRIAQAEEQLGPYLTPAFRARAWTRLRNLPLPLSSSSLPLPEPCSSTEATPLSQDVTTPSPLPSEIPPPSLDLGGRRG

[3] = run 1, dose range 1, individual replicate IC50 per panel
[4] = run 2, dose range 1, individual replicate IC50 per panel

Compound	IC50 [2]	IC50 [1, 3] [µM]	IC50 [1, 4] [µM]
CC[C@@H](O)C[C@H]1CCC[C@@]2(C[C@@H]3OC(=O)/C=C/[C@@](C)(O)[C@@H](O)[C@H](C)[C@@H](O)[C@H](OC4CCC(N(C)C)C(C)O4)[C@@H](O)[C@](C)(O)CCCCC/C=C/[C@@H]4CC(C)(C)O[C@@]4(O)C[C@H](O2)[C@H]3C)O1 (stereo not given in full)	15.8 µM	18.2	13.4
O=c1c2c3c(sc2nc(N2CCNCC2)n1CCc1ccccc1)CCCCC3	inactive	32.1	17.4
OCCN1CCN(C2CCC(c3ccc(F)cc3)c3ccc(F)cc32)CC1 (stereo not given)	inactive	20.4	23
COC(=O)C1=C(C(=O)OC)C(C(=O)OC)C(C(=O)OC)C(C(=O)OC)(C(=O)OC)C(C(=O)OC)=C1C(=O)OC (stereo not given)	13.8 µM	16.9	10.7
CCCCCCCn1c(=N)n(CC(O)c2ccco2)c2ccccc21 (stereo not given)	inactive	22	22.2
Cn1cc(CN2CCCC(C(=O)Nc3ccc(-c4cccc(F)c4)cc3)C2)cn1 (stereo not given)	inactive	19.6	29.8
CC(C)c1ccc(/C=N/Nc2ccc(C(=O)O)cc2)cc1	15.3 µM	11.1	19.4
COc1cc(/C=C/[N+](=O)[O-])ccc1OC(=O)/C=C/c1ccc(F)cc1	> 100 µM (inactive)	> 100	> 100
N/C(=N\OC(=O)c1ccccc1)C(C(=O)NOC(=O)c1ccccc1)C1CCCCC1 (stereo not given)	inactive	24.5	> 100
Cc1cccc(CN2C(=O)/C(=C\c3ccc(C(=O)NCCN4CCOCC4)cc3)Sc3ccccc32)c1	inactive	18.2	22.1
CC(=O)NC(c1ccccc1)c1cc(Cl)c2cccnc2c1O (stereo not given)	9.5 µM	6.33	12.7
Cc1cc(C)c(CN2CCN(CCCn3cnc(C(=O)Nc4ccc(C)c(C)c4)n3)CC2)c(C)c1	16.1 µM	19	13.1
CCN1CCN(Cc2c(O)ccc3c2O/C(=C\C=C\c2ccccc2)C3=O)CC1	inactive	46.6	11.5
Cc1c(CCOC(=O)C23CC4CC(CC(C)(C4)C2)C3)sc[n+]1CC(=O)c1ccccc1	inactive	21.8	21.7
COc1ccc(-n2nnnc2C(C2CC2)N2CCC(n3c(=O)[nH]c4ccccc43)CC2)cc1 (stereo not given)	inactive	58.3	14.7
CN(C)CCNc1ccc2nnn3c4ccc(O)cc4c(=O)c1c23	inactive	45.4	43
N=c1n(CCN2CCCC2)c2ccccc2n1CC(O)c1ccc(Cl)c(Cl)c1 (stereo not given)	13.4 µM	17.7	9.03

More lines, main results first:

IC50 [2]	Compound	IC50 [1, 3] [µM]	IC50 [1, 4] [µM]
12.5 µM	COC(=O)Cc1[nH]n(-c2nc3ccccc3s2)c(=O)c1C(C)=Nc1ccc(Cl)cc1	24.7	0.372
inactive	CC(=O)Nc1ccc(Nc2nc(C)c([N+](=O)[O-])c(Nc3ccccc3)n2)cc1	22.6	> 100
15.9 µM	COc1ccc(CC(N)c2csc(Nc3cccc(OC)n3)n2)cc1 (stereo not given)	17.6	14.2
inactive	COc1ccc(CCn2c(=N)c(C(=O)NC3CCCC3)cc3c(=O)n4cccc(C)c4nc32)cc1	15.8	42.7
12.3 µM	CCCOC(=O)c1cccc(Nc2nc(-c3cccnc3)nc3ccccc23)c1	12.6	11.9
19.3 µM	COc1cc(NC(=O)c2cccc(C)c2)ccc1NC(=O)c1cc2ccccc2o1	12.9	25.6
inactive	COc1ccc(CN2CCN(C(=O)c3cc(-c4cccnc4)nc4ccc(Cl)cc34)CC2)c(OC)c1OC	52.4	16.4
inactive	CCOc1ccc2[nH]c3c(NCCc4ccc(OC)c(OC)c4)ncnc3c2c1	46.3	> 100
